Experiment [1] concerns Tel7 (DNA, G4) TTAGGGT. Kind of experiment: fluorescence titration. As to conditions: K+ (100 mM KCl, 10 mM potassium phosphate; quadruplex annealing buffer), pH 7.0, 25 °C; for Kd1: site 1 of 2.
The test system of experiment [2] is Tel22 (DNA, G4) AGGGTTAGGGTTAGGGTTAGGG
Kind of experiment: fluorescence titration. The following applies: K+ (100 mM KCl, 10 mM potassium phosphate; quadruplex annealing buffer); pH 7.0, 25 °C; site 1 of 2.

For experiment [3], the system named is c-kit21up (DNA, G4) CGGGCGGGCGCGAGGGAGGGG
Nature of the experiment: fluorescence titration. As to conditions: K+ (100 mM KCl, 10 mM potassium phosphate; quadruplex annealing buffer); pH 7.0, 25 °C; single site.

The subject of experiment [4] is Tel7 (DNA, G4) TTAGGGT. Kind of experiment: NMR titration, NOESY and restrained MD structure. As to conditions: K+; 298 K, H2O/D2O 9:1; stacks at T1pT2 and G6pT7; imino signals persist to 343 K versus lost at 323 K.
Experiment [5] has as its system c-myc (DNA, G4) TGAGGGTGGTGAGGGTGGGGAAGG
Kind of experiment: fluorescence titration. As to conditions: K+ (100 mM KCl, 10 mM potassium phosphate; quadruplex annealing buffer); pH 7.0, 25 °C; site 1 of 2.

In the case of `C[C@@H]1O[C@@H](OC[C@H]2O[C@@H](Oc3c(-c4ccc(O)c(O)c4)oc4cc(O)cc(O)c4c3=O)[C@H](O)[C@@H](O)[C@@H]2O)[C@H](O)[C@H](O)[C@H]1O`, the Kd1 in experiment [1] was 38 nM.
On the same count and under the same terms, the value for `O=c1cc(-c2ccc(O)c(O)c2)oc2cc(O)cc(O)c12` was 23 nM.
On to `O=c1c(O)c(-c2ccc(O)c(O)c2)oc2cc(O)cc(O)c12`, for which the Kd1 was 30.2 nM in experiment [2], 1.13 µM in experiment [3], 4.9 nM in experiment [1] and 138 nM in experiment [5]. The binding entry in experiment [4] is “yes”.
As usually defined, the Kd is the free concentration of one partner at which half of the binding sites on the other are occupied at equilibrium, for simple one-to-one binding. The compound `O=c1c(-c2ccc(O)cc2)coc2cc(O)cc(O)c12` gave a dissociation constant Kd in experiment [1] (same value under Kd1 and Kd2 (single binding pattern)) of 26.5 µM.
